{"source": "patent US20220331274A1", "about": "“METHODS OF TREATING CANCER” (Inspirna, Inc., priority 2019, published 2022)", "key": {"[1]": {"settings": "cited from earlier work"}, "[2]": {"test_system": "BRAF wild-type human melanoma xenograft", "experiment": "BRAF wild-type human melanoma xenograft model", "type": "in vivo", "settings": "100 mg/kg in combination with dacarbazine"}, "[3]": {"test_system": "mouse melanoma", "experiment": "syngeneic mouse melanoma model", "type": "in vivo"}, "[4]": {"test_system": "Xenograft A549", "experiment": "Example 2: Xenograft A549 mice, tumor volume", "type": "in vivo", "settings": "Group 02: 2 mg/kg cisplatin, corn oil", "protocol": "Protocol: Five groups of Xenograft A549 mice were treated and tumor volume tracked for twenty-two days. Group 01 was administered 0.9% Saline, 0 mg/kg cisplatin, Corn Oil, and 0 mg/kg 2-[3-[(3R)-3-[[2-chloro-3-(trifluoromethyl)phenyl]methyl-(2,2-diphenylethyl)amino]butoxy]phenyl]acetic acid; Group 02 was administered 2 mg/kg Cisplatin, Corn Oil, and 0 mg/kg 2-[3-[(3R)-3-[[2-chloro-3-(trifluoromethyl)phenyl]methyl-(2,2-diphenylethyl)amino]butoxy]phenyl]acetic acid; Group 03 was administered 0.9% Saline, 0 mg/kg cisplatin, and 50 mg/kg 2-[3-[(3R)-3-[[2-chloro-3-(trifluoromethyl)phenyl]methyl-(2,2-diphenylethyl)amino]butoxy]phenyl]acetic acid; Group 04 was administered 2 mg/kg cisplatin and 50 mg/kg 2-[3-[(3R)-3-[[2-chloro-3-(trifluoromethyl)phenyl]methyl-(2,2-diphenylethyl)amino]butoxy]phenyl]acetic acid twice per day daily for the entire treatment period; and Group 05 was administered 2 mg/kg cisplatin and 50 mg/kg 2-[3-[(3R)-3-[[2-chloro-3-(trifluoromethyl)phenyl]methyl-(2,2-diphenylethyl)amino]butoxy]phenyl]acetic acid twice per day for five continuous days followed by two days without for the entire treatment period."}, "[5]": {"settings": "cited from earlier work", "remark": "listed apart in the source"}, "[6]": {"settings": "cited from earlier work", "remark": "listed apart in the source"}}}
{"compound": "ipilimumab: recombinant human IgG1 kappa monoclonal antibody that binds to CTLA-4", "values": [{"measurement": "immune-mediated hepatitis", "setting": "[1]; in vivo", "result": "immune-mediated hepatitis has been observed"}]}
{"compound": "Cl.O=C(O)Cc1cccc(OCCCN(Cc2cccc(C(F)(F)F)c2Cl)CC(c2ccccc2)c2ccccc2)c1", "note": "[GW3965, 3-[3-[N-(2-Chloro-3-trifluoromethylbenzyl)-(2,2-diphenylethyl)amino]propyloxy]phenylacetic acid hydrochloride, reference compound]", "values": [{"measurement": "anti-tumor efficacy", "setting": "[2]", "result": "Additive anti-tumor efficacy"}, {"measurement": "tumor suppressive efficacy", "setting": "[3]; 100 mg/kg in combination with anti-CTLA-4", "result": "additive tumor suppressive efficacy"}, {"measurement": "anti-tumor efficacy", "setting": "[3]; 100 mg/kg in combination with dacarbazine, syngeneic melanoma animal model", "result": "Additive anti-tumor efficacy"}]}
{"compound": "N.N.[Cl][Pt][Cl]", "note": "[cisplatin, reference compound]", "values": [{"measurement": "mean tumor volume", "setting": "[4]; day 0, in mm³ (unit assumed)", "result": 86.05}, {"measurement": "mean tumor volume", "setting": "[4]; day 3", "result": 116.20}, {"measurement": "mean tumor volume", "setting": "[4]; day 6", "result": 196.48}, {"measurement": "mean tumor volume", "setting": "[4]; day 9, in mm³ (unit assumed)", "result": 276.41}, {"measurement": "mean tumor volume", "setting": "[4]; day 12, in mm³ (unit assumed)", "result": 450.58}, {"measurement": "mean tumor volume", "setting": "[4]; day 15, in mm³ (unit assumed)", "result": 598.84}, {"measurement": "mean tumor volume", "setting": "[4]; day 19", "result": 1239.53}, {"measurement": "mean tumor volume", "setting": "[4]; day 22", "result": 1521.86}]}
{"compound": "nivolumab: fully human immunoglobulin (Ig) G4 monoclonal antibody directed against programmed death-1 (PD-1)", "values": [{"measurement": "hyperlipidemia in treated subjects", "setting": "[1]; in vivo", "result": "has also been reported"}, {"measurement": "immune-mediated hepatitis", "setting": "[1]; in vivo", "result": "immune-mediated hepatitis has been observed"}]}
{"compound": "N.N.O=C([O-])C1(C(=O)[O-])CCC1.[Pt+2]", "note": "[Carboplatin, platinum, diammine[1,1-cyclobutanedicarboxylato(2-)-O,O′]-, (SP-4-2)]", "values": [{"measurement": "solubility in ethanol, acetone, and dimethylacetamide", "setting": "[5]; ethanol, acetone, dimethylacetamide", "result": "virtually insoluble"}, {"measurement": "solubility in water", "setting": "[5]; water", "result": "approximately 14 mg/mL"}, {"measurement": "pH of a 1% solution", "setting": "[6]", "result": "5-7"}]}
{"compound": "CC(=O)O[C@@]12CO[C@@H]1C[C@H](O)[C@@]1(C)C(=O)[C@H](O)C3=C(C)[C@@H](OC(=O)[C@H](O)[C@@H](NC(=O)OC(C)(C)C)c4ccccc4)C[C@@](O)([C@@H](OC(=O)c4ccccc4)[C@H]21)C3(C)C", "note": "[docetaxel, (2R,3S)—N-carboxy-3-phenylisoserine,N-tert-butyl ester, 13-ester with 5b-20-epoxy-1,2a,4,7b, 10b, 13a-hexahydroxytax-11-en-9-one 4-acetate 2-benzoate, trihydrate]", "values": [{"measurement": "hepatotoxicity", "setting": "[1]; treatment with the partner drug", "result": "hepatotoxicity has been observed"}]}
